The source of these data is patent US12043632B2, “6-heteroaryloxy benzimidazoles and azabenzimidazoles as JAK2 inhibitors” (Ajax Therapeutics, Inc., priority 2020, dated 2024).

pKd: −log10 of the molar value. A value given as a limit tells only on which side of the number the result lay.

The target of the assay is T1, JAK2 (JH1domain-catalytic, Y1007F,Y1008F) kinase (Homo sapiens, UniProt O60674, Y1007F/Y1008F).
T1 construct: JAK2 (JH1domain-catalytic, Y1007F,Y1008F) kinase was expressed as N-terminal fusion; made in house; host or cells: transiently transfected HEK293 cells
T1 sequence (O60674 849-1124 Y1007F/Y1008F limits assumed): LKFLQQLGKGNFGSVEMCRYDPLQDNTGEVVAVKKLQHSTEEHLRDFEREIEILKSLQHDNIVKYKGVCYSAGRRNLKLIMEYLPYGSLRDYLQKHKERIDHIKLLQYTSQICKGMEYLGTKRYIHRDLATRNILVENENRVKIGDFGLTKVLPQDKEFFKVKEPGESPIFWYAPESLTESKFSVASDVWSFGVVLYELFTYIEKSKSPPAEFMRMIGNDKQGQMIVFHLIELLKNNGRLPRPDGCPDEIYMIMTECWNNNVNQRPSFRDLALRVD
Put plainly: JAK2 JH1 Domain Binding Assay. The settings on record: qPCR readout.
Regarding `CNc1cn2ncc(Oc3cnc4nc(Nc5cc(OC[C@@H]6CCCN6C)cc(C(F)(F)F)c5)n(C)c4c3Cl)c2cn1` [Example I-331, (S)-7-chloro-1-methyl-6-((6-(methylamino)pyrazolo[1,5-a]pyrazin-3-yl)oxy)-N-(3-((1-methylpyrrolidin-2-yl)methoxy)-5-(trifluoromethyl)phenyl)-1H-imidazo[4,5-b]pyridin-2-amine], the pKd is over 8.00.

`CNc1cn2ncc(Oc3cnc4nc(Nc5cc(OC[C@H]6CCCN6C)cc(C(F)(F)F)c5)n(C)c4c3Cl)c2cn1` [Example I-332, (R)-7-chloro-1-methyl-6-((6-(methylamino)pyrazolo[1,5-a]pyrazin-3-yl)oxy)-N-(3-((1-methylpyrrolidin-2-yl)methoxy)-5-(trifluoromethyl)phenyl)-1H-imidazo[4,5-b]pyridin-2-amine] had a pKd of over 8.00.

As for `Cn1cc(C(F)(F)F)cc(Nc2nc3ncc(Oc4cnc5[nH]nc(C(F)(F)F)c5c4)c(C#N)c3n2C)c1=O` [Example I-333, 1-methyl-2-((1-methyl-2-oxo-5-(trifluoromethyl)-1,2-dihydropyridin-3-yl)amino)-6-((3-(trifluoromethyl)-1H-pyrazolo[3,4-b]pyridin-5-yl)oxy)-1H-imidazo[4,5-b]pyridine-7-carbonitrile], the pKd is 7.30 to 8.00.

As to `Cc1c(Oc2cnc3nc(Nc4cc(C(F)(F)F)cn(C)c4=O)n(C)c3c2C#N)cnc2[nH]ccc12` [Example I-334, 1-methyl-6-((4-methyl-1H-pyrrolo[2,3-b]pyridin-5-yl)oxy)-2-((1-methyl-2-oxo-5-(trifluoromethyl)-1,2-dihydropyridin-3-yl)amino)-1H-imidazo[4,5-b]pyridine-7-carbonitrile], the pKd is 7.30 to 8.00.

Take `Cn1cc(C(F)(F)F)cc(Nc2nc3ncc(Oc4cnc5[nH]ccc5c4F)c(C#N)c3n2C)c1=O` [Example I-335, 6-((4-fluoro-1H-pyrrolo[2,3-b]pyridin-5-yl)oxy)-1-methyl-2-((1-methyl-2-oxo-5-(trifluoromethyl)-1,2-dihydropyridin-3-yl)amino)-1H-imidazo[4,5-b]pyridine-7-carbonitrile]: the pKd is over 8.00.

With `Cn1cc(C(F)(F)F)cc(Nc2nc3ncc(Oc4cnn5cc(OCCN6CCOCC6)ccc45)c(C#N)c3n2C)c1=O` [Example I-336, 1 1-methyl-2-((1-methyl-2-oxo-5-(trifluoromethyl)-1,2-dihydropyridin-3-yl)amino)-6-((6-(2-morpholinoethoxy)pyrazolo[1,5-a]pyridin-3-yl)oxy)-1H-imidazo[4,5-b]pyridine-7-carbonitrile], the pKd was over 8.00.

`Cn1cc(C(F)(F)F)cc(Nc2nc3ncc(Oc4cnc5[nH]nc(C6CC6)c5c4)c(C#N)c3n2C)c1=O` [Example I-337, 6-((3-cyclopropyl-1H-pyrazolo[3,4-b]pyridin-5-yl)oxy)-1-methyl-2-((1-methyl-2-oxo-5-(trifluoromethyl)-1,2-dihydropyridin-3-yl)amino)-1H-imidazo[4,5-b]pyridine-7-carbonitrile]: the pKd is over 8.00.

For the compound `CNc1cn2ncc(Oc3cnc4nc(Nc5cc6n(n5)CCCC6(C)C)n(C)c4c3Cl)c2cn1` [Example I-338, 7-chloro-N-(4,4-dimethyl-4,5,6,7-tetrahydropyrazolo[1,5-a]pyridin-2-yl)-1-methyl-6-((6-(methylamino)pyrazolo[1,5-a]pyrazin-3-yl)oxy)-1H-imidazo[4,5-b]pyridin-2-amine], the pKd was over 8.00.

`CNc1cn2ncc(Oc3cnc4nc(Nc5cc(-n6cnc(C)c6)cc(C(F)(F)F)c5)n(C)c4c3Cl)c2cn1` [Example I-339, 7-chloro-1-methyl-N-(3-(4-methyl-1H-imidazol-1-yl)-5-(trifluoromethyl)phenyl)-6-((6-(methylamino)pyrazolo[1,5-a]pyrazin-3-yl)oxy)-1H-imidazo[4,5-b]pyridin-2-amine] showed a pKd of over 8.00.

For `CNc1cn2ncc(Oc3cnc4nc(Nc5cc(C(F)(F)F)n([C@@H]6CCOC6)n5)n(C)c4c3Cl)c2cn1` [Example I-340, (R)-7-chloro-1-methyl-6-((6-(methylamino)pyrazolo[1,5-a]pyrazin-3-yl)oxy)-N-(1-(tetrahydrofuran-3-yl)-5-(trifluoromethyl)-1H-pyrazol-3-yl)-1H-imidazo[4,5-b]pyridin-2-amine], the negative-log Kd (pKd) was over 8.00.

As for `Cc1n[nH]c2ncc(Oc3cnc4nc(Nc5cc(C(F)(F)F)cn(C)c5=O)n(C)c4c3C#N)cc12` [Example I-341, 1-methyl-6-((3-methyl-1H-pyrazolo[3,4-b]pyridin-5-yl)oxy)-2-((1-methyl-2-oxo-5-(trifluoromethyl)-1,2-dihydropyridin-3-yl)amino)-1H-imidazo[4,5-b]pyridine-7-carbonitrile], the pKd was over 8.00.

Compound `Cn1c(Nc2ccc(CN3CCCC3)c(C(F)(F)F)c2)nc2ncc(Oc3cnn4ccncc34)c(C#N)c21` [Example I-342, 1-methyl-6-(pyrazolo[1,5-a]pyrazin-3-yloxy)-2-((4-(pyrrolidin-1-ylmethyl)-3-(trifluoromethyl)phenyl)amino)-1H-imidazo[4,5-b]pyridine-7-carbonitrile] showed a pKd of 7.30 to 8.00.

`CCn1c(C(C)(C)C)ncc(Nc2nc3ncc(Oc4cnn5cc(NC)ncc45)c(Cl)c3n2C)c1=O` [Example I-345, 2-(tert-butyl)-5-((7-chloro-1-methyl-6-((6-(methylamino)pyrazolo[1,5-a]pyrazin-3-yl)oxy)-1H-imidazo[4,5-b]pyridin-2-yl)amino)-3-ethylpyrimidin-4(3H)-one]: the pKd was 7.30 to 8.00.

Compound `CNc1cn2ncc(Oc3cnc4nc(Nc5cc(C(C)(C)C)n([C@H]6CCN(C)C6)n5)n(C)c4c3Cl)c2cn1` [Example I-346, (S)—N-(5-(tert-butyl)-1-(1-methylpyrrolidin-3-yl)-1H-pyrazol-3-yl)-7-chloro-1-methyl-6-((6-(methylamino)pyrazolo[1,5-a]pyrazin-3-yl)oxy)-1H-imidazo[4,5-b]pyridin-2-amine] had a pKd of 7.30 to 8.00.

Compound `CNc1cn2ncc(Oc3cnc4nc(Nc5cc(C(C)(C)C)n([C@@H]6CCN(C)C6)n5)n(C)c4c3Cl)c2cn1` [Example I-347, (R)—N-(5-(tert-butyl)-1-(1-methylpyrrolidin-3-yl)-1H-pyrazol-3-yl)-7-chloro-1-methyl-6-((6-(methylamino)pyrazolo[1,5-a]pyrazin-3-yl)oxy)-1H-imidazo[4,5-b]pyridin-2-amine] showed a pKd of 6.00 to 7.30.

As to `CNc1cn2ncc(Oc3cnc4nc(Nc5cc(C(=O)N(C)C)c(F)c(C(F)(F)F)c5)n(C)c4c3Cl)c2cn1` [Example I-348, 5-((7-chloro-1-methyl-6-((6-(methylamino)pyrazolo[1,5-a]pyrazin-3-yl)oxy)-1H-imidazo[4,5-b]pyridin-2-yl)amino)-2-fluoro-N,N-dimethyl-3-(trifluoromethyl)benzamide], the pKd is 7.30 to 8.00.

`COc1c[nH]c2ncc(Oc3cnc4nc(Nc5cc(C(F)(F)F)cn(C)c5=O)n(C)c4c3C#N)cc12` [Example I-349, 6-((3-methoxy-1H-pyrrolo[2,3-b]pyridin-5-yl)oxy)-1-methyl-2-((1-methyl-2-oxo-5-(trifluoromethyl)-1,2-dihydropyridin-3-yl)amino)-1H-imidazo[4,5-b]pyridine-7-carbonitrile] showed a pKd of over 8.00.

In the case of `CNc1cn2ncc(Oc3cnc4nc(Nc5cc(N6CCN(C)CC6)cc(C(F)(F)F)c5)n(C)c4c3Cl)c2cn1` [Example I-351, 7-chloro-1-methyl-6-((6-(methylamino)pyrazolo[1,5-a]pyrazin-3-yl)oxy)-N-(3-(4-methylpiperazin-1-yl)-5-(trifluoromethyl)phenyl)-1H-imidazo[4,5-b]pyridin-2-amine], the pKd was 7.30 to 8.00.

The compound `CNc1cn2ncc(Oc3cnc4nc(Nc5cc(C6CCN(C)CC6)cc(C(F)(F)F)c5)n(C)c4c3Cl)c2cn1` [Example I-353, 7-chloro-1-methyl-6-((6-(methylamino)pyrazolo[1,5-a]pyrazin-3-yl)oxy)-N-(3-(1-methylpiperidin-4-yl)-5-(trifluoromethyl)phenyl)-1H-imidazo[4,5-b]pyridin-2-amine] gave a negative-log Kd (pKd) of over 8.00.

Compound `CNc1cc(F)c2c(Oc3cnc4nc(Nc5cc(C(F)(F)F)cn(C)c5=O)n(C)c4c3Cl)cnn2c1` [Example I-354, 3-((7-chloro-6-((4-fluoro-6-(methylamino)pyrazolo[1,5-a]pyridin-3-yl)oxy)-1-methyl-1H-imidazo[4,5-b]pyridin-2-yl)amino)-1-methyl-5-(trifluoromethyl)pyridin-2(1H)-one] had a pKd of over 8.00.

Regarding `COCCOc1ccc2c(Oc3cnc4nc(Nc5cc(C(F)(F)F)cn(C)c5=O)n(C)c4c3Cl)cnn2c1` [Example I-355, 3-((7-chloro-6-((6-(2-methoxyethoxy)pyrazolo[1,5-a]pyridin-3-yl)oxy)-1-methyl-1H-imidazo[4,5-b]pyridin-2-yl)amino)-1-methyl-5-(trifluoromethyl)pyridin-2(1H)-one], the pKd is over 8.00.

As to `CNc1cn2ncc(Oc3cnc4nc(Nc5cc(CN6CC7(COC7)C6)cc(C(F)(F)F)c5)n(C)c4c3Cl)c2cn1` [Example I-356, N-(3-((2-oxa-6-azaspiro[3.3]heptan-6-yl)methyl)-5-(trifluoromethyl)phenyl)-7-chloro-1-methyl-6-((6-(methylamino)pyrazolo[1,5-a]pyrazin-3-yl)oxy)-1H-imidazo[4,5-b]pyridin-2-amine], the pKd is 7.30 to 8.00.

On to `CNc1cn2ncc(Oc3cnc4nc(Nc5cc(CN6CCC6)cc(C(F)(F)F)c5)n(C)c4c3Cl)c2cn1` [Example I-357, N-(3-(azetidin-1-ylmethyl)-5-(trifluoromethyl)phenyl)-7-chloro-1-methyl-6-((6-(methylamino)pyrazolo[1,5-a]pyrazin-3-yl)oxy)-1H-imidazo[4,5-b]pyridin-2-amine], for which the pKd is 6.00 to 7.30.

Take `CNc1cn2ncc(Oc3cnc4nc(Nc5cc(CN6CC(F)C6)cc(C(F)(F)F)c5)n(C)c4c3Cl)c2cn1` [Example I-358, 7-chloro-N-(3-((3-fluoroazetidin-1-yl)methyl)-5-(trifluoromethyl)phenyl)-1-methyl-6-((6-(methylamino)pyrazolo[1,5-a]pyrazin-3-yl)oxy)-1H-imidazo[4,5-b]pyridin-2-amine]: the pKd was 6.00 to 7.30.
